Measurements: patent publication EP4755880A1, “SUBSTITUTED NITROGEN-CONTAINING BICYCLIC COMPOUND AND USE THEREOF” (Sunshine Lake Pharma Co., Ltd., priority 2023, dated 2025)
pIC50: −log10 of the molar value.

Experiments:
[1] = target: PARP1 (Homo sapiens, UniProt P09874); test: Inhibition of PARP1 enzyme activity (ELISA, chemiluminescence); assay type: biochemical; conditions: for IC50: ELISA, histone-coated plate, NAD+, 60 min at 25 °C; for Selectivity PARP2/PARP1: ratio of PARP2 IC50 to PARP1 IC50
Sequence of PARP1 (P09874 whole entry): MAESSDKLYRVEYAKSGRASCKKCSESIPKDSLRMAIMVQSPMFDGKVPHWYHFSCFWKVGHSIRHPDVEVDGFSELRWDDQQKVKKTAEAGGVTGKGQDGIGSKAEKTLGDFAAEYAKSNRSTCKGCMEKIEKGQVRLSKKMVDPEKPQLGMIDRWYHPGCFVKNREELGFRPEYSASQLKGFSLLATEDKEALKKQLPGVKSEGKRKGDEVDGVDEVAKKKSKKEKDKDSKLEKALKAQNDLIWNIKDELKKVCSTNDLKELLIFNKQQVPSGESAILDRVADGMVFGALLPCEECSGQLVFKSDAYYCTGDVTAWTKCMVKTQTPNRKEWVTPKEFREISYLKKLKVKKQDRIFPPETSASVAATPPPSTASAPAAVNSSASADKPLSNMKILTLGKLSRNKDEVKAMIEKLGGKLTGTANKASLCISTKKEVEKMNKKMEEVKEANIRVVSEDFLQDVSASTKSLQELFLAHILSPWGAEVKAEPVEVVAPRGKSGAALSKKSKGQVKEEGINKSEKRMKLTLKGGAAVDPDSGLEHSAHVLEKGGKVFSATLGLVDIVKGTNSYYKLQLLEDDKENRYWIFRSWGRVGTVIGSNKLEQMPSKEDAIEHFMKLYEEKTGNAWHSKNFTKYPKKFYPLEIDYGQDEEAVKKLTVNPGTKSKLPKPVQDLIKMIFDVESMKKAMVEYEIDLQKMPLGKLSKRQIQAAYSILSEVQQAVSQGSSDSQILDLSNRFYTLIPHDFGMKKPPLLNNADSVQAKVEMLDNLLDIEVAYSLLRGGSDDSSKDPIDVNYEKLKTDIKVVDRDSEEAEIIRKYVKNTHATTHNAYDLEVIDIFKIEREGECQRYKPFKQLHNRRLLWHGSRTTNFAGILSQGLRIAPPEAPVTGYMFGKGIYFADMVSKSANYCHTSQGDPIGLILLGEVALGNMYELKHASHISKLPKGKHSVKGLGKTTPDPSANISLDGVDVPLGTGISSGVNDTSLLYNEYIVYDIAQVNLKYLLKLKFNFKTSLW
Experimental: Experimental Objective: To evaluate the inhibitory effect of the compounds of the present invention on the enzyme activities of PARP1 and PARP2 using ELISA.
• 1. histone-coated 384-well plates was prepared: 25 µL of histone solution was added to each well and incubated overnight at 4 °C. • 2. PBST buffer, blocking buffer (PBS buffer with 5% BSA and 0.05% Tween-20 added) and detection buffer (20 mM HEPES pH 7.5 + 100 mM NaCl + 2 mM DTT + 0.002% Tween-20 + 0.1% BSA) were prepared. • 3. The histone-coated 3 84-well plate was washed three times with PBST buffer, blocked at room temperature with 50 µL blocking buffer for 1 hour, and then washed three times with PBST buffer. • 4. Test compounds were prepared as 2000-fold stock solutions in DMSO. 50 nL of the stock solution was mixed with 19.95 µL detection buffer, and 5 µL of the gradient-diluted test compound was transferred to each well. • 5. Enzymatic reaction (PARP1): PARP1 & DNA mix was pre-incubated at 25 °C for 10 minutes. 10 µL of the PARP1 & DNA mix was added to each well and incubated with the test compound at room temperature for 10 minutes. […] Finally, the 384-well plate was washed three times with PBST buffer. Enzymatic reaction (PARP2): PARP2 was pre-incubated at 25 °C for 10 minutes. 10 µL of PARP2 was added to each well and incubated with the test compound at room temperature for 10 minutes. […] Finally, the 384-well plate was washed three times with PBST buffer. • 6. Detection (PARP1): 20 µL of anti-Poly/Mono-ADP Ribose Rabbit mAb was added and incubated at room temperature for 1.5 hours, followed by three washes of the 384-well plate with PBST buffer. Then, 20 µL of diluted anti-rabbit IgG, HRP-linked Antibody (diluted 1:2000 in blocking buffer) was added and incubated at room temperature for 1 hour. After washing the plate three times with PBST buffer, 25 µL of a 1:1 mixture of Femto-ECL Substrate A and Femto-ECL Substrate B was added. Detection (PARP2): 25 µL of Strep-HRP was added and incubated at room temperature for 1 hour, followed by three washes of the 384-well plate with PBS buffer. Then, 25 µL of a 1:1 mixture of Femto-ECL Substrate A and Femto-ECL Substrate B was added. • 7. Chemiluminescence intensity was measured using an Envision multimode microplate reader. • 8. Data Processing
The inhibition rate was calculated in Excel using formula (1). inh% = (Max−Signal)/(Max−Min)*100 [formula]
The IC50 value was obtained by fitting the data in XL-Fit using formula (2). Y = bottom + (top−bottom)/(1+(IC50/X)*HillSlope); [formula] wherein Y is the inhibition percentage and X is the compound concentration.

[2] = target: PARP2 (Homo sapiens, UniProt Q9UGN5); test: biochemical;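 also: PARP2 enzyme ELISA on histone-coated plates, Strep-HRP detection with chemiluminescence read-out, 10 min compound preincubation with enzyme, inhibition scaled between Max and Min signal controls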
Sequence of PARP2 (Q9UGN5 whole entry): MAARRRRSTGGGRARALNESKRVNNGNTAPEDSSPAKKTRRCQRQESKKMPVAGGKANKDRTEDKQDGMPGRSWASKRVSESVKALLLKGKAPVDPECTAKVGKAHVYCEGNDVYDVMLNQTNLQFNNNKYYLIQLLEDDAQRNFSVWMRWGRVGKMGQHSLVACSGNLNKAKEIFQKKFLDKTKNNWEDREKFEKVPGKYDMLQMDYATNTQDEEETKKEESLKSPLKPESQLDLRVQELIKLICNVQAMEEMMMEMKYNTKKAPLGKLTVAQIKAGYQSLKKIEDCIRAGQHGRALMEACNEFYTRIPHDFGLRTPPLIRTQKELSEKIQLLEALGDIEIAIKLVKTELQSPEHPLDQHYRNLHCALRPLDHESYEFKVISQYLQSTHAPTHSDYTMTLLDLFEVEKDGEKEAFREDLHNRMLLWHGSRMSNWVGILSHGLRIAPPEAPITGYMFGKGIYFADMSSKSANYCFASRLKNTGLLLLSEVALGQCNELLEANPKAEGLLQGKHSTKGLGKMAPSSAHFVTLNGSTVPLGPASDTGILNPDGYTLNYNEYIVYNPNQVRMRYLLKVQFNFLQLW

[3] = tested on: DLD-1 BRCA2(-/-) cells; test: Inhibition of proliferation of DLD-1 BRCA2(-/-) cells (CTG method); assay type: cell-based; conditions: Homo sapiens, DLD-1, 168 h; 7 days incubation, CellTiter-Glo
Experimental: • 1. Cell Pretreatment: DLD-1 BRCA2(-/-) cells were cultured in growth medium 1640 + 10% FBS (fetal bovine serum) + 1% Penicillin-Streptomycin. Cells in the logarithmic growth phase were digested with trypsin-EDTA, centrifuged, and resuspended. DLD-1 BRCA2(-/-) cells were seeded at 1,000 cells/well in sterile 96-well opaque plates, 75 µl per well. After seeding, the cell culture plates were incubated overnight at 37 °C with 5% CO2 before adhesion, followed by treatment with the test compounds. • 2. DLD-1 BRCA2(-/-) Cell Drug Treatment: The test compound was prepared as a 10 mM stock solution using DMSO. The test compound was then diluted to a 4× working solution using growth medium (starting at 40 µM, with 9 4-fold dilutions). 25 µl of 4× working solution was added to each well to achieve final concentrations of 10000, 2500, 625, 156, 39, 9.7, 2.4, 0.61, and 0.152 nM, respectively. Blank control wells containing the same DMSO concentration were also included, with three replicates for each concentration. After adding the test compound, the cells were incubated at 37 °C with 5% CO2 for 7 days. • 3. After incubation, 100 µl of CellTiter-Glo® Reagent was added to each well, and […] intensity was measured. A curve was fitted using GraphPad software, and the IC50 value for cell proliferation inhibition was calculated.

[4] = tested on: MDA-MB-436 cells; test: Inhibition of proliferation of MDA-MB-436 cells (CellTiter-Glo); assay type: cell-based; conditions: Homo sapiens, MDA-MB-436, 168 h, 7 days incubation
Experimental: • 1. Cell Pretreatment: MDA-MB-436 cells were cultured in DMEM + 10% FBS + 1% penicillin-dip antibiotics + 1% ITS + 16 µg/ml glutathione. Cells in the logarithmic growth phase were digested with trypsin-EDTA, centrifuged and resuspended, and then seeded at a rate of 500-1000 cells/well in sterile 96-well opaque plates, 90 µl per well. After seeding, the cell culture plates were incubated overnight at 37°C with 5% CO2 before drug treatment. • 2. Drug treatment of MDA-MB-436 cells: The test compound was prepared as a 10 mM stock solution using DMSO. The drug was then diluted to a 10× working solution using growth medium (the compound was started at 100 µM and diluted 4-fold to achieve 9 concentrations). 10 µl of the 10× working solution was added to each well to achieve final drug concentrations of 10000, 2500, 625, 156, 39, 9.7, 2.4, 0.61, and 0.152 nM, respectively. Blank control wells containing the same DMSO concentration were also included, with three replicates for each concentration. After drug addition, the cells were incubated at 37°C with 5% CO2 for 7 days. • 3. After incubation, 100 µl of CellTiter-Glo® Reagent was added to each well, and luminescence was measured. The IC50 value of cell proliferation inhibition was calculated using GraphPad software to fit the curve. Table E: Results of the inhibitory effect of the compound of this invention on the proliferation of MDA-MB-436 cells.

SMILES	IC50 [1]	Selectivity PARP2/PARP1 [1]	pIC50 [2]	pIC50 [3]	pIC50 [4]
CNC(=O)c1ccc(N2CCN(Cc3cc(OC(F)F)c4nc(C)c(=O)[nH]c4c3F)CC2)c(C)n1 [Example 60, 5-(4-((8-(difluoromethoxy)-5-fluoro-2-methyl-3-oxo-3,4-dihydroquinoxalin-6-yl)methyl)piperazin-1-yl)-N,6-dimethylpicolinamide]	2.9 nM	2030.7	5.23	8.07	7.51
CC#Cc1cc(CN2CCN(c3ccc(C(=O)NC)nc3C)CC2)c(F)c2[nH]c(=O)c(C)nc12 [Example 45, 5-(4-((5-fluoro-2-methyl-3-oxo-8-(prop-1-yn-1-yl)-3,4-dihydroquinoxalin-6-yl)methyl)piperazin-1-yl)-N,6-dimethylpicolinamide]	7.7 nM	>1290.7	< 5.00	7.92	7.95
CNC(=O)c1ccc(N2CCN(Cc3cc(Oc4ccccc4)c4nc(C)c(=O)[nH]c4c3)CC2)c(F)n1 [Example 4, 6-fluoro-N-methyl-5-(4-((2-methyl-3-oxo-8-phenoxy-3,4-dihydroquinoxalin-6-yl)methyl)piperazin-1-yl)picolinamide]	1.84 nM	968.5	5.75	8.33	8.28
CC#Cc1cc(CN2CCN(c3ccc(C(=O)NC)nc3F)CC2)c(F)c2[nH]c(=O)c(C)nc12 [Example 21, 6-fluoro-5-(4-((5-fluoro-2-methyl-3-oxo-8-(prop-1-yn-1-yl)-3,4-dihydroquinoxalin-6-yl)methyl)piperazin-1-yl)-N-methylpicolinamide]	6.7 nM	>1480	< 5.00	7.65	7.64
CNC(=O)c1ccc(N2CCN(Cc3cc(-c4cccc(F)c4)c4nc(C)c(=O)[nH]c4c3)CC2)c(F)n1 [Example 9, 6-fluoro-5-(4-((8-(3-fluorophenyl)-2-methyl-3-oxo-3,4-dihydroquinoxalin-6-yl)methyl)piperazin-1-yl)-N-methylpicolinamide]	1.61 nM	705.3	5.94	7.95	8.09
CC#Cc1cc(CN2CCN(c3ccc(C(=O)NC4CC4)nc3F)CC2)c(F)c2[nH]c(=O)c(C)nc12 [Example 47, N-cyclopropyl-6-fluoro-5-(4-((5-fluoro-2-methyl-3-oxo-8-(prop-1-yn-1-yl)-3,4-dihydroquinoxalin-6-yl)methyl)piperazin-1-yl)picolinamide]	6.9 nM	>1456.3	< 5.00	7.73	9.22
C#Cc1cc(CN2CCN(c3ccc(C(=O)NC)nc3F)CC2)cc2[nH]c(=O)c(C)nc12 [Example 20, 5-(4-((8-ethynyl-2-methyl-3-oxo-3,4-dihydroquinoxalin-6-yl)methyl)piperazin-1-yl)-6-fluoro-N-methylpicolinamide]	0.6 nM	124.8	7.16	8.62	8.48
CNC(=O)c1ccc(C2=CCN(Cc3cc(OC(F)F)c4nc(C)c(=O)[nH]c4c3)CC2)cn1 [Example 44, 1'-((8-(difluoromethoxy)-2-methyl-3-oxo-3,4-dihydroquinoxalin-6-yl)methyl)-N-methyl-1',2',3',6'-tetrahydro-[3,4'-bipyridine]-6-carboxamide]	0.8 nM	184.1	6.83	8.03	8.89
CC#Cc1cc(CN2CCN(c3ccc(C#N)cn3)CC2)cc2[nH]c(=O)c(C)nc12 [Example 43, 6-(4-((2-methyl-3-oxo-8-(prop-1-yn-1-yl)-3,4-dihydroquinoxalin-6-yl)methyl)piperazin-1-yl)nicotinonitrile]	1.5 nM	398.1	6.23	7.57	8.10
CNC(=O)c1ccc(N2CCN(Cc3cc(OC(F)F)c4nc(C5CC5)c(=O)[nH]c4c3)CC2)c(F)n1 [Example 54, 5-(4-((2-cyclopropyl-8-(difluoromethoxy)-3-oxo-3,4-dihydroquinoxalin-6-yl)methyl)piperazin-1-yl)-6-fluoro-N-methylpicolinamide]	7.6 nM	26.7	6.69	7.74	7.54
CNC(=O)c1ccc(N2CCN(Cc3cc(OC(F)F)c4cc(C)c(=O)[nH]c4c3)CC2)c(F)n1 [Example 55, 5-(4-((5-(difluoromethoxy)-3-methyl-2-oxo-1,2-dihydroquinolin-7-yl)methyl)piperazin-1-yl)-6-fluoro-N-methylpicolinamide]	1.9 nM	7.6	7.84	8.41	> 10.42
CNC(=O)c1ccc(N2CCN(Cc3cc(OC4CC(F)(F)C4)c4nc(C)c(=O)[nH]c4c3)CC2)c(F)n1 [Example 18, 5-(4-((8-(3,3-difluorocyclobutoxy)-2-methyl-3-oxo-3,4-dihydroquinoxalin-6-yl)methyl)piperazin-1-yl)-6-fluoro-N-methylpicolinamide]	1.7 nM	54.7	7.03	8.10	9.05
CC#Cc1cc(CN2CC=C(c3ccc(C(=O)NC4CC4)nc3F)CC2)cc2[nH]c(=O)c(C)nc12 [Example 39, N-cyclopropyl-2-fluoro-1'-((2-methyl-3-oxo-8-(prop-1-yn-1-yl)-3,4-dihydroquinoxalin-6-yl)methyl)-1',2',3',6'-tetrahydro-[3,4'-bipyridine]-6-carboxamide]	2.9 nM	206.8	6.22	8.11	> 10.42
CC#Cc1cc(CN2CCN3c4ccc(C(=O)NC)nc4COC[C@H]3C2)cc2[nH]c(=O)c(C)nc12 [Example 63, (R)-N-methyl-3-((2-methyl-3-oxo-8-(prop-1-yn-1-yl)-3,4-dihydroquinoxalin-6-yl)methyl)-2,3,4,4a,5,7-hexahydro-1H-pyrazino[2,1-c]pyrido[3,2-e][1,4]oxazepine-9-carboxamide]	3.2 nM	398.8	5.89	7.79	8.21
CNC(=O)c1ccc(N2CCN(Cc3cc(C4CC4)c4nc(C)c(=O)[nH]c4c3F)CC2)c(F)n1 [Example 19, 5-(4-((8-cyclopropyl-5-fluoro-2-methyl-3-oxo-3,4-dihydroquinoxalin-6-yl)methyl)piperazin-1-yl)-6-fluoro-N-methylpicolinamide]	0.7 nM	107.3	7.15	8.82	8.38
CNC(=O)c1ccc(N2CCN(Cc3cc(OC4CCCCC4)c4nc(C)c(=O)[nH]c4c3)CC2)c(F)n1 [Example 72, 5-(4-((8-(cyclohexyloxy)-2-methyl-3-oxo-3,4-dihydroquinoxalin-6-yl)methyl)piperazin-1-yl)-6-fluoro-N-methylpyridine amide]	1.3 nM	756.9	6.00	8.04	7.92
